Data from the supplement of paper PMC10307832.

Tests used:
Assay in all cases: relative viability (nuclei count vs DMSO), 5 days (fraction); higher = more cells survive
[1] = compound: Cc1nc(NC(=O)N2CCC[C@H]2C(N)=O)sc1-c1ccnc(C(C)(C)C(F)(F)F)c1 [Alpelisib] + CS(=O)(=O)N1CCN(Cc2cc3nc(-c4cccc5[nH]ncc45)nc(N4CCOCC4)c3s2)CC1 [Pictilisib] (partner 1 µM)
Outline: (§1)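 Lung cancer cell lines in 1536-well plates were dosed by pin tool the day after seeding, either with one drug alone or with a fixed anchor-drug dose plus five library-drug doses (not always all listed) in √10 steps. After 5 days, cells were fixed and their nuclei stained in one step (final 0.05% Triton X-100, 1% formaldehyde, 1 ug/ml Hoechst), then counted on 4× images. Relative viability is the nuclei count in treated wells divided by that in vehicle wells. Values are medians of duplicate plates.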

[2] = compound: Cc1nc(NC(=O)N2CCC[C@H]2C(N)=O)sc1-c1ccnc(C(C)(C)C(F)(F)F)c1 [Alpelisib] + CC(=O)c1c(C)c2cnc(Nc3ccc(N4CCNCC4)cn3)nc2n(C2CCCC2)c1=O [Palbociclib] (partner 0.5 µM)
Outline: as §1

[3] = compound: Cc1nc(NC(=O)N2CCC[C@H]2C(N)=O)sc1-c1ccnc(C(C)(C)C(F)(F)F)c1 [Alpelisib] + Cc1cc(Nc2cc(N3CCN(C)CC3)nc(Sc3ccc(NC(=O)C4CC4)cc3)n2)n[nH]1 [Tozasertib] (partner 0.1 µM)
Outline: as §1

[4] = compound: COc1cccc2cc(-c3nc([C@H]4CC[C@H](C(=O)O)CC4)n4ncnc(N)c34)[nH]c12 [OSI-027] + C[C@@H](Oc1cc(-c2cnn(C3CCNCC3)c2)cnc1N)c1c(Cl)ccc(F)c1Cl [Crizotinib] (partner 1 µM)
Outline: as §1

## NCI-H1993
[1]; first compound 0.04 µM
  relative viability: 0.825
[1]; first compound 0.1265 µM
  relative viability: 0.803
[1]; first compound 0.4 µM
  relative viability: 0.767
[1]; first compound 1.265 µM
  relative viability: 0.696
[1]; first compound 4 µM
  relative viability: 0.918
[2]; first compound 0.04 µM
  relative viability: 0.549
[2]; first compound 0.1265 µM
  relative viability: 0.637
[2]; first compound 0.4 µM
  relative viability: 0.647
[2]; first compound 1.265 µM
  relative viability: 0.501
[2]; first compound 4 µM
  relative viability: 0.465
[3]; first compound 0.04 µM
  relative viability: 0.621
[3]; first compound 0.1265 µM
  relative viability: 0.505
[3]; first compound 0.4 µM
  relative viability: 0.542
[3]; first compound 1.265 µM
  relative viability: 0.511
[3]; first compound 4 µM
  relative viability: 0.515
[4]; first compound 0.01 µM
  relative viability: 0.783
[4]; first compound 0.03162 µM
  relative viability: 0.77
[4]; first compound 0.1 µM
  relative viability: 0.678
[4]; first compound 0.3162 µM
  relative viability: 0.565
[4]; first compound 1 µM
  relative viability: 0.56

## NCI-H2009
[1]; first compound 0.04 µM
  relative viability: 0.805
[1]; first compound 0.1265 µM
  relative viability: 0.773
[1]; first compound 0.4 µM
  relative viability: 1.02
[1]; first compound 1.265 µM
  relative viability: 0.767
[1]; first compound 4 µM
  relative viability: 0.52
[2]; first compound 0.04 µM
  relative viability: 0.235
[2]; first compound 0.1265 µM
  relative viability: 0.23
[2]; first compound 0.4 µM
  relative viability: 0.245
[2]; first compound 1.265 µM
  relative viability: 0.215
[2]; first compound 4 µM
  relative viability: 0.164
[3]; first compound 0.04 µM
  relative viability: 0.729
[3]; first compound 0.1265 µM
  relative viability: 0.708
[3]; first compound 0.4 µM
  relative viability: 0.768
[3]; first compound 1.265 µM
  relative viability: 0.696
[3]; first compound 4 µM
  relative viability: 0.752
[4]; first compound 0.01 µM
  relative viability: 1.05
[4]; first compound 0.03162 µM
  relative viability: 0.998
[4]; first compound 0.1 µM
  relative viability: 0.879
[4]; first compound 0.3162 µM
  relative viability: 0.941
[4]; first compound 1 µM
  relative viability: 0.72

## NCI-H2023
[1]; first compound 0.04 µM
  relative viability: 0.203
[1]; first compound 0.1265 µM
  relative viability: 0.26
[1]; first compound 0.4 µM
  relative viability: 0.253
[1]; first compound 1.265 µM
  relative viability: 0.207
[1]; first compound 4 µM
  relative viability: 0.19
[2]; first compound 0.04 µM
  relative viability: 0.312
[2]; first compound 0.1265 µM
  relative viability: 0.309
[2]; first compound 0.4 µM
  relative viability: 0.326
[2]; first compound 1.265 µM
  relative viability: 0.258
[2]; first compound 4 µM
  relative viability: 0.223
[3]; first compound 0.04 µM
  relative viability: 0.36
[3]; first compound 0.1265 µM
  relative viability: 0.35
[3]; first compound 0.4 µM
  relative viability: 0.348
[3]; first compound 1.265 µM
  relative viability: 0.215
[3]; first compound 4 µM
  relative viability: 0.166
[4]; first compound 0.01 µM
  relative viability: 0.679
[4]; first compound 0.03162 µM
  relative viability: 0.587
[4]; first compound 0.1 µM
  relative viability: 0.614
[4]; first compound 0.3162 µM
  relative viability: 0.501
[4]; first compound 1 µM
  relative viability: 0.295

## NCI-H2085
[1]; first compound 0.04 µM
  relative viability: 0.503
[1]; first compound 0.1265 µM
  relative viability: 0.549
[1]; first compound 0.4 µM
  relative viability: 0.518
[1]; first compound 1.265 µM
  relative viability: 0.427
[1]; first compound 4 µM
  relative viability: 0.426
[2]; first compound 0.04 µM
  relative viability: 0.464
[2]; first compound 0.1265 µM
  relative viability: 0.484
[2]; first compound 0.4 µM
  relative viability: 0.455
[2]; first compound 1.265 µM
  relative viability: 0.447
[2]; first compound 4 µM
  relative viability: 0.446
[3]; first compound 0.04 µM
  relative viability: 0.825
[3]; first compound 0.1265 µM
  relative viability: 0.718
[3]; first compound 0.4 µM
  relative viability: 0.907
[3]; first compound 1.265 µM
  relative viability: 0.762
[3]; first compound 4 µM
  relative viability: 0.746
[4]; first compound 0.01 µM
  relative viability: 0.807
[4]; first compound 0.03162 µM
  relative viability: 0.852
[4]; first compound 0.1 µM
  relative viability: 0.825
[4]; first compound 0.3162 µM
  relative viability: 0.812
[4]; first compound 1 µM
  relative viability: 0.586

## NCI-H2087
[1]; first compound 0.04 µM
  relative viability: 0.801
[1]; first compound 0.1265 µM
  relative viability: 0.847
[1]; first compound 0.4 µM
  relative viability: 1.01
[1]; first compound 1.265 µM
  relative viability: 0.827
[1]; first compound 4 µM
  relative viability: 0.659
[2]; first compound 0.04 µM
  relative viability: 0.301
[2]; first compound 0.1265 µM
  relative viability: 0.237
[2]; first compound 0.4 µM
  relative viability: 0.246
[2]; first compound 1.265 µM
  relative viability: 0.257
[2]; first compound 4 µM
  relative viability: 0.193
[3]; first compound 0.04 µM
  relative viability: 0.256
[3]; first compound 0.1265 µM
  relative viability: 0.294
[3]; first compound 0.4 µM
  relative viability: 0.305
[3]; first compound 1.265 µM
  relative viability: 0.218
[3]; first compound 4 µM
  relative viability: 0.167
[4]; first compound 0.01 µM
  relative viability: 0.991
[4]; first compound 0.03162 µM
  relative viability: 0.971
[4]; first compound 0.1 µM
  relative viability: 0.753
[4]; first compound 0.3162 µM
  relative viability: 0.866
[4]; first compound 1 µM
  relative viability: 0.53

## NCI-H2126
[1]; first compound 0.04 µM
  relative viability: 0.499
[1]; first compound 0.1265 µM
  relative viability: 0.506
[1]; first compound 0.4 µM
  relative viability: 0.496
[1]; first compound 1.265 µM
  relative viability: 0.491
[1]; first compound 4 µM
  relative viability: 0.501
[2]; first compound 0.04 µM
  relative viability: 0.363
[2]; first compound 0.1265 µM
  relative viability: 0.334
[2]; first compound 0.4 µM
  relative viability: 0.345
[2]; first compound 1.265 µM
  relative viability: 0.359
[2]; first compound 4 µM
  relative viability: 0.334
[3]; first compound 0.04 µM
  relative viability: 0.879
[3]; first compound 0.1265 µM
  relative viability: 0.826
[3]; first compound 0.4 µM
  relative viability: 0.809
[3]; first compound 1.265 µM
  relative viability: 0.627
[3]; first compound 4 µM
  relative viability: 0.584
[4]; first compound 0.01 µM
  relative viability: 1.04
[4]; first compound 0.03162 µM
  relative viability: 0.986
[4]; first compound 0.1 µM
  relative viability: 0.996
[4]; first compound 0.3162 µM
  relative viability: 0.915
[4]; first compound 1 µM
  relative viability: 0.664

## NCI-H2170
[1]; first compound 0.04 µM
  relative viability: 0.322
[1]; first compound 0.1265 µM
  relative viability: 0.328
[1]; first compound 0.4 µM
  relative viability: 0.331
[1]; first compound 1.265 µM
  relative viability: 0.343
[1]; first compound 4 µM
  relative viability: 0.283
[2]; first compound 0.04 µM
  relative viability: 0.351
[2]; first compound 0.1265 µM
  relative viability: 0.337
[2]; first compound 0.4 µM
  relative viability: 0.36
[2]; first compound 1.265 µM
  relative viability: 0.246
[2]; first compound 4 µM
  relative viability: 0.21
[3]; first compound 0.04 µM
  relative viability: 0.637
[3]; first compound 0.1265 µM
  relative viability: 0.727
[3]; first compound 0.4 µM
  relative viability: 0.771
[3]; first compound 1.265 µM
  relative viability: 0.625
[3]; first compound 4 µM
  relative viability: 0.298
[4]; first compound 0.01 µM
  relative viability: 1.31
[4]; first compound 0.03162 µM
  relative viability: 1.07
[4]; first compound 0.1 µM
  relative viability: 0.986
[4]; first compound 0.3162 µM
  relative viability: 1.1
[4]; first compound 1 µM
  relative viability: 0.552

## NCI-H2228
[1]; first compound 0.04 µM
  relative viability: 0.473
[1]; first compound 0.1265 µM
  relative viability: 0.326
[1]; first compound 0.4 µM
  relative viability: 0.547
[1]; first compound 1.265 µM
  relative viability: 0.445
[1]; first compound 4 µM
  relative viability: 0.221
[2]; first compound 0.04 µM
  relative viability: 0.748
[2]; first compound 0.1265 µM
  relative viability: 0.519
[2]; first compound 0.4 µM
  relative viability: 0.771
[2]; first compound 1.265 µM
  relative viability: 0.332
[2]; first compound 4 µM
  relative viability: 0.355
[3]; first compound 0.04 µM
  relative viability: 0.224
[3]; first compound 0.1265 µM
  relative viability: 0.173
[3]; first compound 0.4 µM
  relative viability: 0.231
[3]; first compound 1.265 µM
  relative viability: 0.204
[3]; first compound 4 µM
  relative viability: 0.139
[4]; first compound 0.01 µM
  relative viability: 0.525
[4]; first compound 0.03162 µM
  relative viability: 0.524
[4]; first compound 0.1 µM
  relative viability: 0.485
[4]; first compound 1 µM
  relative viability: 0.239
